Assay results from patent publication US11780845B2 (Relay Therapeutics, Inc., priority 2019, dated 2023).

target: FGFR2 (Homo sapiens (Human), UniProt P21802); assay: Biochemical FGFR2 Caliper assay; details: not given
Sequence (P21802 22-821): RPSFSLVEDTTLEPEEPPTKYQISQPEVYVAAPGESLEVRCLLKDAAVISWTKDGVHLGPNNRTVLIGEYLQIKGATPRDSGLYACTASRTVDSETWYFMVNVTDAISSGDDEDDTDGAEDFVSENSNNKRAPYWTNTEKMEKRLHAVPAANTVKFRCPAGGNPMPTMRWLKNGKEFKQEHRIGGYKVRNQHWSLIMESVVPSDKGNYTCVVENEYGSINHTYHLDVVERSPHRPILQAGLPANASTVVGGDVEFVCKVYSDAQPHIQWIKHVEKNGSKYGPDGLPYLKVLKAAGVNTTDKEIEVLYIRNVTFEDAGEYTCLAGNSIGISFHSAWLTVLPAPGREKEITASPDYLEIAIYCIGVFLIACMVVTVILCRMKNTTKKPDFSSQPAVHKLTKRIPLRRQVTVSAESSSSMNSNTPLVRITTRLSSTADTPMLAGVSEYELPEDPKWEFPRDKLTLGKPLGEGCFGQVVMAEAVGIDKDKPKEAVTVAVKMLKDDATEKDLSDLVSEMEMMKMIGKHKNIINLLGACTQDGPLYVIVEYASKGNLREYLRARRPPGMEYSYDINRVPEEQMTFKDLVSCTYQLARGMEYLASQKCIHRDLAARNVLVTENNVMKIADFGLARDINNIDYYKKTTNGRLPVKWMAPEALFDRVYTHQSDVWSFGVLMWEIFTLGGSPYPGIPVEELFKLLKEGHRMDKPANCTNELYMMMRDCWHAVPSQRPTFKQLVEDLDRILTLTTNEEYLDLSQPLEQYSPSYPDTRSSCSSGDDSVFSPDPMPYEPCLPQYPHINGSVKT

SMILES | IC50
C=C(C)C(=O)Nc1ccc(-c2c(-c3ccc(Oc4cccc(C)n4)cc3)c3c(N)ncnn3c2CO)cc1 [Example 808] | 100 to 250 nM
C=C(C)C(=O)Nc1ccc(-c2c(-c3ccc(-c4noc(C)n4)cc3)c3c(N)ncnc3n2C)cc1 [Example 1145] | 1000 to 100000 nM
C=CC(=O)Nc1ccc(-c2c(-c3ccc4[nH]ccc4c3)c3c(N)ncnc3n2C)cc1 [Example 1148] | < 100 nM
C=C(C)C(=O)Nc1ccc(-c2c(C3=CC[C@H](C(=O)N4CCCC4)CC3)c3c(N)ncnc3n2C)c(F)c1 [Example 1001] | < 100 nM
C=C1CCN(c2ccc(-c3c(-c4ccc(Oc5nccc(C)n5)cc4)c4c(N)ncnc4n3C)cn2)C1=O [Example 1077] | < 100 nM
C=CC(=O)Nc1ccc(-c2c(-c3ccc(Oc4nccc(C)n4)c(F)c3)c3c(N)ncnc3n2C)cc1 [Example 1112] | < 100 nM
C=C(C)C(=O)Nc1nn(C)c(-c2c(-c3ccc(Oc4nccc(C)n4)cc3)c3c(N)ncnc3n2C)c1C [Example 1010] | 1000 to 100000 nM
C=CC(=O)N1C[C@H](c2c(-c3ccc(Oc4cccc(C)n4)cc3)c3c(N)ncnc3n2C)[C@@H](O)C1 [Example 806] | < 100 nM
Cn1c(-c2ccc(NC(=O)[C@@H]3CN3)cc2)c(-c2ccc(C(=O)N3CCCC3)cc2)c2c(N)ncnc21 (single isomer, unassigned) [Example 899] | 1000 to 100000 nM
C=CC(=O)N1CC[C@H](c2c(C3=CC[C@@H](C(=O)N4CCCC4)CC3)c3c(N)ncnc3n2C)C1 (single isomer, unassigned) [Example 874] | 250 to 1000 nM
C=C(C)C(=O)Nc1cc(C)c(-c2c(-c3ccc(Oc4nccc(C)n4)cc3)c3c(N)ncnc3n2C)c(C)c1 [Example 1165] | < 100 nM
C=C(C)C(=O)Nc1ccc(-c2cn3ncnc(N)c3c2-c2ccc(C(=O)NCC(C)(C)OC)cc2)cc1 [Example 852] | 250 to 1000 nM
C=CC(=O)N1CC(F)C(c2c(-c3ccc(Oc4cccc(C)n4)cc3)c3c(N)ncnc3n2C)C1 (centres unmarked) [Example 813] | 250 to 1000 nM
C=CC(=O)N1CC=C(c2c(-c3ccc(Oc4cccc(C)n4)cc3)c3c(N)ncnc3n2C)[C@H]1C (single isomer, unassigned) [Example 932] | 100 to 250 nM
C=CC(=O)Nc1ccccc1-c1c(-c2ccc(Oc3cccc(C)n3)cc2)c2c(N)ncnc2n1C [Example 1082] | < 100 nM

More lines, now with the values ahead:

IC50 | SMILES
100 to 250 nM | C#Cc1cnc(-c2c(-c3ccc(Oc4nccc(C)n4)c(F)c3)c3c(N)ncnc3n2C)c(CN(C)C)c1 [Example 1314]
< 100 nM | C#Cc1cc(C)c(-c2c(C3=CC[C@@H](C(=O)N4CCC[C@@H]4C)CC3)c3c(N)ncnc3n2C)cn1 (single isomer, unassigned) [Example 1210]
1000 to 100000 nM | C=C(C)C(=O)Nc1ccc(-c2c(-c3ccc(OCc4ccccc4)c(F)c3)c3c(N)ncnc3n2C)cc1 [Example 1435]
< 100 nM | C#Cc1cnc2cc(-c3c(-c4ccc(Oc5nccc(C)n5)c(F)c4)c4c(N)ncnc4n3C)c(C)cc2n1 [Example 1428]
100 to 250 nM | C=CC(=O)Nc1ccc(-c2c(-c3ccc(-n4cc(C)cn4)nc3)c3c(C)ncnc3n2C)cc1 [Example 1315]
250 to 1000 nM | C=C(C)C(=O)Nc1ccc(-c2c(-c3cc4cccnc4s3)c3c(N)ncnc3n2C)cc1 [Example 1270]
< 100 nM | C=C(C)C(=O)Nc1cc(C)c(-c2c(C3=CC[C@@H](C(=O)N4CCCC4)CC3)c3c(N)ncnc3n2C)c(F)c1 [Example 1483]
< 100 nM | C#Cc1ccc(-c2c(C3=CC[C@@H](C(=O)N4CCC[C@H]4C#N)CC3)c3c(N)ncnc3n2C)c(C)n1 (single isomer, unassigned) [Example 1235]
< 100 nM | C#Cc1ncc(-c2c(-c3ccc(C(=O)N(C)CC(C)C)cc3)c3c(N)ncnc3n2C)c(C)c1F [Example 1305]
< 100 nM | C#Cc1cc(C)c(-c2c(-c3ccc(Oc4ccn(C)n4)c(F)c3)c3c(N)ncnc3n2C)cn1 [Example 1246]
1000 to 100000 nM | C=C(C)C(=O)Nc1ccc(-c2c(C3=CCC(C#N)CC3)c3c(N)ncnc3n2C)cc1 (centres unmarked) [Example 1287]
< 100 nM | C#Cc1cc(OC)c(-c2c(C3=CC[C@@H](C(=O)N4CCC[C@H]4C)CC3)c3c(N)ncnc3n2C)cn1 [Example 1354]
< 100 nM | C#Cc1cc(C)c(-c2c(C3=CC[C@H](C(=O)N4CCC[C@H]4C#N)CC3)c3c(N)ncnc3n2C)cn1 [Example 1251]

test system: SNU-16; assay: Cell SNU-16 assay; assay type: cell-based; details: Homo sapiens, SNU-16, SNU-16 cells

SMILES | IC50
C=C(C)C(=O)Nc1ccc(-c2c(-c3ccc(Oc4cccc(C)n4)cc3)c3c(N)ncnn3c2CO)cc1 [Example 808] | 100 to 250 nM
C=C(C)C(=O)Nc1ccc(-c2c(-c3ccc(-c4noc(C)n4)cc3)c3c(N)ncnc3n2C)cc1 [Example 1145] | 1000 to 100000 nM
C=CC(=O)Nc1ccc(-c2c(-c3ccc4[nH]ccc4c3)c3c(N)ncnc3n2C)cc1 [Example 1148] | ≤ 100 nM
C=C(C)C(=O)Nc1ccc(-c2c(C3=CC[C@H](C(=O)N4CCCC4)CC3)c3c(N)ncnc3n2C)c(F)c1 [Example 1001] | ≤ 100 nM
C=C1CCN(c2ccc(-c3c(-c4ccc(Oc5nccc(C)n5)cc4)c4c(N)ncnc4n3C)cn2)C1=O [Example 1077] | ≤ 100 nM
C=CC(=O)Nc1ccc(-c2c(-c3ccc(Oc4nccc(C)n4)c(F)c3)c3c(N)ncnc3n2C)cc1 [Example 1112] | ≤ 100 nM
C=C(C)C(=O)Nc1nn(C)c(-c2c(-c3ccc(Oc4nccc(C)n4)cc3)c3c(N)ncnc3n2C)c1C [Example 1010] | 250 to 1000 nM
C=CC(=O)N1C[C@H](c2c(-c3ccc(Oc4cccc(C)n4)cc3)c3c(N)ncnc3n2C)[C@@H](O)C1 [Example 806] | 100 to 250 nM
Cn1c(-c2ccc(NC(=O)[C@@H]3CN3)cc2)c(-c2ccc(C(=O)N3CCCC3)cc2)c2c(N)ncnc21 (single isomer, unassigned) [Example 899] | 1000 to 100000 nM
C=CC(=O)N1CC[C@H](c2c(C3=CC[C@@H](C(=O)N4CCCC4)CC3)c3c(N)ncnc3n2C)C1 (single isomer, unassigned) [Example 874] | 100 to 250 nM
C=C(C)C(=O)Nc1cc(C)c(-c2c(-c3ccc(Oc4nccc(C)n4)cc3)c3c(N)ncnc3n2C)c(C)c1 [Example 1165] | ≤ 100 nM
C=C(C)C(=O)Nc1ccc(-c2cn3ncnc(N)c3c2-c2ccc(C(=O)NCC(C)(C)OC)cc2)cc1 [Example 852] | 1000 to 100000 nM
C=CC(=O)N1CC(F)C(c2c(-c3ccc(Oc4cccc(C)n4)cc3)c3c(N)ncnc3n2C)C1 (centres unmarked) [Example 813] | 250 to 1000 nM
C=CC(=O)N1CC=C(c2c(-c3ccc(Oc4cccc(C)n4)cc3)c3c(N)ncnc3n2C)[C@H]1C (single isomer, unassigned) [Example 932] | 250 to 1000 nM
C=CC(=O)Nc1ccccc1-c1c(-c2ccc(Oc3cccc(C)n3)cc2)c2c(N)ncnc2n1C [Example 1082] | ≤ 100 nM

Second part, the compound after the results:

IC50 | SMILES
≤ 100 nM | C#Cc1cnc(-c2c(-c3ccc(Oc4nccc(C)n4)c(F)c3)c3c(N)ncnc3n2C)c(CN(C)C)c1 [Example 1314]
≤ 100 nM | C#Cc1cc(C)c(-c2c(C3=CC[C@@H](C(=O)N4CCC[C@@H]4C)CC3)c3c(N)ncnc3n2C)cn1 (single isomer, unassigned) [Example 1210]
1000 to 100000 nM | C=C(C)C(=O)Nc1ccc(-c2c(-c3ccc(OCc4ccccc4)c(F)c3)c3c(N)ncnc3n2C)cc1 [Example 1435]
≤ 100 nM | C#Cc1cnc2cc(-c3c(-c4ccc(Oc5nccc(C)n5)c(F)c4)c4c(N)ncnc4n3C)c(C)cc2n1 [Example 1428]
250 to 1000 nM | C=CC(=O)Nc1ccc(-c2c(-c3ccc(-n4cc(C)cn4)nc3)c3c(C)ncnc3n2C)cc1 [Example 1315]
250 to 1000 nM | C=C(C)C(=O)Nc1ccc(-c2c(-c3cc4cccnc4s3)c3c(N)ncnc3n2C)cc1 [Example 1270]
≤ 100 nM | C=C(C)C(=O)Nc1cc(C)c(-c2c(C3=CC[C@@H](C(=O)N4CCCC4)CC3)c3c(N)ncnc3n2C)c(F)c1 [Example 1483]
≤ 100 nM | C#Cc1ccc(-c2c(C3=CC[C@@H](C(=O)N4CCC[C@H]4C#N)CC3)c3c(N)ncnc3n2C)c(C)n1 (single isomer, unassigned) [Example 1235]
≤ 100 nM | C#Cc1ncc(-c2c(-c3ccc(C(=O)N(C)CC(C)C)cc3)c3c(N)ncnc3n2C)c(C)c1F [Example 1305]
≤ 100 nM | C#Cc1cc(C)c(-c2c(-c3ccc(Oc4ccn(C)n4)c(F)c3)c3c(N)ncnc3n2C)cn1 [Example 1246]
1000 to 100000 nM | C=C(C)C(=O)Nc1ccc(-c2c(C3=CCC(C#N)CC3)c3c(N)ncnc3n2C)cc1 (centres unmarked) [Example 1287]
≤ 100 nM | C#Cc1cc(OC)c(-c2c(C3=CC[C@@H](C(=O)N4CCC[C@H]4C)CC3)c3c(N)ncnc3n2C)cn1 [Example 1354]
≤ 100 nM | C#Cc1cc(C)c(-c2c(C3=CC[C@H](C(=O)N4CCC[C@H]4C#N)CC3)c3c(N)ncnc3n2C)cn1 [Example 1251]
